Four substances from patent US20160238590A1, “COMPOSITIONS AND METHODS RELATED TO OAT SENSITIVITY” (IMMUSANT, INC., priority 2013, published 2016) can be followed below.

Where no end group is shown, it is not given here. [ ]: non-standard residue; d: D form. pGlu = O=C1CC[C@@H](C(=O)O)N1

Common to all, as to assay type: cell-based, human
The subject of experiment [1] is PBMC. Briefly: IFN-γ ELISpot on PBMC of CD patients after 3-day barley challenge. The settings on record: after barley challenge. The text has this:
(§1) Australian Caucasian HLA-DQ2.5^+ and/or HLA-DQ8^+ CD subjects were recruited by advertisement in the Coeliac Society of Victoria newsletter and all had biopsy-proven CD conforming to ESPGHAN criteria. Patients had been on strict gluten free diet for at least 4 weeks prior to commencing grain challenge. Patients underwent 3-day grain challenge with oats, barley, or combined wheat, barley, and rye muffins, and 6 days after commencement, blood was collected. Day 0 responses were not observed in the selection of patients tested, as described previously^8.
(§2) Oats challenge consisted of 100 g dry weight daily of one of three commercial brands of oats: one not tested for wheat contamination (Uncle Toby's; Oats #1), and two shown by R5 ELISA to contain less than 20 ppm wheat gluten (Tilquhilie Pudding; Oats #2 and Freedom Food; Oats #3). Barley challenge consisted of pearl barley (Ward McKenzie) cooked into a risotto (150 g dry weight daily) and the wheat challenge consisted of four 50 g slices of wheat bread daily (Baker's Delight white loaf cut to toasting thickness). The combined wheat, barley, and rye challenge consisted of muffins baked with wheat flour (White Wings), barley flour (Four Leaf Milling), and rye flour (Four Leaf Milling; 22-25 g dry weight each daily). A symptom diary based on a […] Likert scale was completed by participants daily from baseline until day 6.
(§3) Two avenin peptide libraries were utilized for epitope screening. These were designed using avenin sequences from GenBank and a customized algorithm, as previously described^9. The initial library consisted of 199 screening-grade 20 mers including all possible 12 mers (Mimotopes). This library was screened with and without tTG pre-treatment. The second library consisted of additional avenin sequences that were synthesized with glutamate substitution at sites predicted to be deamidated by published algorithms^10, 11 removing the requirement for tTG treatment. This library contained 369 screening-grade 20 mers, including all possible 12 mers (Pepscan). The second round avenin library contained wild-type and deamidated versions of the most immunogenic sequences (25 high quality 16 mers from Mimotopes). High quality peptides containing previously described immunogenic sequences from wheat, barley, and rye were used to test for cross-reactivity^8 (Pepscan). High quality hordein and avenin peptides for TCC testing and biochemical studies were ordered from Pepscan, Mimotopes, or GL Biochem.
(§4) Peripheral blood mononuclear cells (PBMC) were isolated from heparinized whole blood using Ficoll-Paque™ Plus density-gradient centrifugation (GE Healthcare). IFN-γ ELISpot (Mabtech) was set up as previously described^8.

Experiment [2] deals with Patient 6 TCC-01. Briefly: IFN-γ ELISpot with T cell clone. The settings on record: TCC Patient 6 TCC-01 (Table 5); mean no antigen 2. As to the method: as §4
(§5) Isolation of TCC from CD patients was carried out as previously described^8. Briefly, CFSE-labeled PBMC were incubated with antigen for 7 days in IMDM supplemented with 5% heat-inactivated pooled human serum (PHS), 2 mM GlutaMAX™, 100 μM MEM non-essential amino acids (both from Gibco, Invitrogen), and 50 μM 2-mercaptoethanol (Sigma). Proliferated cells were single-cell sorted into 96-well plates containing IL-2, IL-4, anti-CD3 mAb, irradiated feeder cells (allogeneic PBMC and JY-EBV). TCC were expanded and maintained in IL-2 and IL-4 and tested for specificity by ELISpot with irradiated HLA-matched PBMC as antigen-presenting cells. Expanded clones were tested for HLA-DQ restriction, TCR Vbeta usage, and with lysine scans to work out minimal epitopes. See Table 1 below for TCC and epitope information.

Experiment [3] relates to Patient 2 TCC-01. Briefly: IFN-γ ELISpot with T cell clone. The note with it: TCC Patient 2 TCC-01 (Table 5); mean no antigen 1.1. As to the method: as §4, §5
Experiment [4] relates to Patient 14 TCC-01. Put plainly: IFN-γ ELISpot with T cell clone. The settings on record: TCC Patient 14 TCC-01 (Table 5); mean no antigen 11.3, high background, SFU >25 considered as positive responses. The procedure: as §4, §5
For experiment [5], the system named is PBMC. Briefly: IFN-γ ELISpot on PBMC of CD patients on day 6 after 3-day oats challenge. The settings on record: after 3-day oats challenge.
From the text: as §1, §2, §3, §4

Regarding “QYQPYPEQEQPILQQQ [partially deamidated avenin peptide containing DQ2.5-ave-1c]”, the “IFN-γ ELISpot response (raw SFU)” value in experiment [1] (Patient 1, peptide 50 μg/ml) came out at 58 SFU; in experiment [1] (Patient 2, peptide 50 μg/ml), 220 SFU; in experiment [1] (Patient 3, peptide 50 μg/ml) it was 34 SFU; in experiment [2], 5 SFU; in experiment [3], 288 SFU; in experiment [4], 21 SFU. For the same substance, the “IFN-γ ELISpot response (raw SFU)” value was 11 SFU in experiment [5] (patient P1, peptide 1 μg/ml); 33 SFU in experiment [5] (patient P1, peptide 10 μg/ml); 11 SFU in experiment [5] (patient P1, peptide 100 μg/ml); 6 SFU in experiment [5] (patient P2, peptide 1 μg/ml); 34 SFU in experiment [5] (patient P2, peptide 10 μg/ml); 38 SFU in experiment [5] (patient P2, peptide 100 μg/ml). Besides, the “IFN-γ ELISpot response (raw SFU)” value in experiment [5] (patient P3, peptide 1 μg/ml) was found to be 19 SFU; in experiment [5] (patient P3, peptide 10 μg/ml), 26 SFU; in experiment [5] (patient P3, peptide 100 μg/ml) it was 18 SFU; in experiment [5] (patient P11, peptide 1 μg/ml), 3 SFU; in experiment [5] (patient P11, peptide 10 μg/ml), 41 SFU; in experiment [5] (patient P11, peptide 100 μg/ml), 50 SFU. Besides, the “IFN-γ ELISpot response (raw SFU)” value in experiment [5] (patient P12, peptide 1 μg/ml) worked out at 1 SFU; in experiment [5] (patient P12, peptide 10 μg/ml), 39 SFU; in experiment [5] (patient P12, peptide 100 μg/ml), 31 SFU; in experiment [5] (patient P13, peptide 50 μg/ml), 4 SFU. For the same substance, the “significant SFU as a percentage of maximal peptide SFU” value (from here on “significant SFU as a percentage”) is on record as “^^ (^^: 10-20%)” in experiment [1] (Patient 1, peptide 50 μg/ml); “*** (***: >70%)” in experiment [1] (Patient 2, peptide 50 μg/ml); “* (*: 20-40%)” in experiment [1] (Patient 3, peptide 50 μg/ml); “* (*: 20-40%)” in experiment [5] (patient P1, peptide 1 μg/ml); “*** (***: >70%)” in experiment [5] (patient P1, peptide 10 μg/ml); “* (*: 20-40%)” in experiment [5] (patient P1, peptide 100 μg/ml). Further, the “significant SFU as a percentage” value in experiment [5] (patient P2, peptide 10 μg/ml) is recorded as “** (**: 40-70%)”; in experiment [5] (patient P2, peptide 100 μg/ml), “*** (***: >70%)”; in experiment [5] (patient P3, peptide 1 μg/ml), “* (*: 20-40%)”; in experiment [5] (patient P3, peptide 10 μg/ml), “** (**: 40-70%)”; in experiment [5] (patient P3, peptide 100 μg/ml) it was “* (*: 20-40%)”; in experiment [5] (patient P11, peptide 10 μg/ml) it was “*** (***: >70%)”. Besides, the “significant SFU as a percentage” value in experiment [5] (patient P11, peptide 100 μg/ml) is reported as “*** (***: >70%)”; in experiment [5] (patient P12, peptide 10 μg/ml), “** (**: 40-70%)”; in experiment [5] (patient P12, peptide 100 μg/ml) it was “** (**: 40-70%)”.
As to “QYQPYPEQQQPILQQQ [avenin peptide, Genbank AAB32025 (7-22), wild-type]”, the “IFN-γ ELISpot response (raw SFU)” value is 3 SFU in experiment [2]; 79 SFU in experiment [3]; 22 SFU in experiment [4]; 2 SFU in experiment [5] (patient P1, peptide 1 μg/ml); 11 SFU in experiment [5] (patient P1, peptide 10 μg/ml); 11 SFU in experiment [5] (patient P1, peptide 100 μg/ml). The “IFN-γ ELISpot response (raw SFU)” value in experiment [5] (patient P2, peptide 1 μg/ml) is listed as 2 SFU; in experiment [5] (patient P2, peptide 10 μg/ml), 10 SFU; in experiment [5] (patient P2, peptide 100 μg/ml) it was 23 SFU; in experiment [5] (patient P3, peptide 1 μg/ml), 1 SFU; in experiment [5] (patient P3, peptide 10 μg/ml) it was 25 SFU; in experiment [5] (patient P3, peptide 100 μg/ml), 4 SFU. For the same substance, the “IFN-γ ELISpot response (raw SFU)” value was 2 SFU in experiment [5] (patient P11, peptide 1 μg/ml); 11 SFU in experiment [5] (patient P11, peptide 10 μg/ml); 4 SFU in experiment [5] (patient P11, peptide 100 μg/ml); 1 SFU in experiment [5] (patient P12, peptide 1 μg/ml); 3 SFU in experiment [5] (patient P12, peptide 10 μg/ml); 7 SFU in experiment [5] (patient P12, peptide 100 μg/ml). Further, in experiment [5] (patient P13, peptide 50 μg/ml), the “IFN-γ ELISpot response (raw SFU)” value turned out to be 2 SFU. The “significant SFU as a percentage” value in experiment [5] (patient P1, peptide 10 μg/ml) was “* (*: 20-40%)”; in experiment [5] (patient P1, peptide 100 μg/ml), “* (*: 20-40%)”; in experiment [5] (patient P2, peptide 100 μg/ml), “** (**: 40-70%)”; in experiment [5] (patient P3, peptide 10 μg/ml) it was “** (**: 40-70%)”; in experiment [5] (patient P11, peptide 10 μg/ml) it was “(^: 10-20%)”; in experiment [5] (patient P11, peptide 100 μg/ml), “** (**: 40-70%)”.
Consider “SEQYQPYPEQQQPFVQ [avenin peptide, wild-type]”, for which the “IFN-γ ELISpot response (raw SFU)” value came to 1 SFU in experiment [2]; 100 SFU in experiment [3]; 11 SFU in experiment [4]; 2 SFU in experiment [5] (patient P1, peptide 1 μg/ml); 2 SFU in experiment [5] (patient P1, peptide 10 μg/ml); 4 SFU in experiment [5] (patient P1, peptide 100 μg/ml). The “IFN-γ ELISpot response (raw SFU)” value in experiment [5] (patient P2, peptide 1 μg/ml) amounted to 4 SFU; in experiment [5] (patient P2, peptide 10 μg/ml), 1 SFU; in experiment [5] (patient P2, peptide 100 μg/ml), 16 SFU; in experiment [5] (patient P3, peptide 1 μg/ml), 1 SFU; in experiment [5] (patient P3, peptide 10 μg/ml) it was 2 SFU; in experiment [5] (patient P3, peptide 100 μg/ml), 4 SFU. Further, the “IFN-γ ELISpot response (raw SFU)” value in experiment [5] (patient P11, peptide 1 μg/ml) is reported as 0 SFU; in experiment [5] (patient P11, peptide 10 μg/ml) it was 0 SFU; in experiment [5] (patient P11, peptide 100 μg/ml), 0 SFU; in experiment [5] (patient P12, peptide 1 μg/ml), 0 SFU; in experiment [5] (patient P12, peptide 10 μg/ml) it was 1 SFU; in experiment [5] (patient P12, peptide 100 μg/ml) it was 4 SFU. The “IFN-γ ELISpot response (raw SFU)” value in experiment [5] (patient P13, peptide 50 μg/ml) was determined as 1 SFU. In addition, the “significant SFU as a percentage” value in experiment [5] (patient P2, peptide 100 μg/ml) was “* (*: 20-40%)”.
In the case of “pEQPQPYPEQPQPYP ([pGlu]QPQPYPEQPQPYP) [barley peptide, AFM77740.1 (31-44) [Q31 to pyroglutamate, Q38 to E]]”, the “IFN-γ ELISpot response (raw SFU)” value in experiment [2] came out at 52 SFU; in experiment [3], 316 SFU; in experiment [4], 27 SFU.
